Experiments:
Assay in all cases: viability relative to DMSO control (fraction); higher = less drug effect (more viable cells)
Settings in all cases: 48 h
[1] = tested on: primary ALL patient cells (S088)
Procedure, shortened: (§1)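 In 384-well plates with compounds pre-plated at five concentrations (one well per concentration), primary mononuclear tumour cells were plated at 4 × 10^4 cells per well. The cells came from blood or bone marrow by Ficoll isolation or from processed lymph node, and were used fresh or cryopreserved. Culture ran for 48 h at 37 °C and 5% CO2 in RPMI-1640 containing penicillin/streptomycin, L-glutamine and human serum. Viability was read as CellTiter-Glo luminescence, normalised to the median of 16 inner DMSO wells.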

[2] = tested on: primary CLL patient cells (S031)
Procedure, shortened: as §1

[3] = tested on: primary AML patient cells (S079)
Procedure, shortened: as §1

[4] = tested on: primary MCL patient cells (S063)
Procedure, shortened: as §1

[5] = tested on: primary AML patient cells (S056)
Procedure, shortened: as §1

[6] = tested on: primary AML patient cells (S072)
Procedure, shortened: as §1

[7] = tested on: primary AML patient cells (S006)
Procedure, shortened: as §1

[8] = tested on: primary ALL patient cells (S048)
Procedure, shortened: as §1

[9] = tested on: primary AML patient cells (S089)
Procedure, shortened: as §1

[10] = tested on: primary AML patient cells (S055)
Procedure, shortened: as §1

[11] = tested on: primary AML patient cells (S071)
Procedure, shortened: as §1

[12] = tested on: primary AML patient cells (S060)
Procedure, shortened: as §1

[13] = tested on: primary DLBCL patient cells (S082)
Procedure, shortened: as §1

[14] = tested on: primary CLL patient cells (S043)
Procedure, shortened: as §1

## Nc1nc(Cl)nc2c1ncn2[C@@H]1O[C@H](CO)[C@@H](O)[C@@H]1F [Clofarabine]
[1]; 0.024 µM
  viability: 0.569
[1]; 0.12 µM
  viability: 0.254
[1]; 0.6 µM
  viability: 0.203
[1]; 3 µM
  viability: 0.173
[1]; 15 µM
  viability: 0.109
[2]; 0.024 µM
  viability: 0.424
[2]; 0.12 µM
  viability: 0.0924
[2]; 0.6 µM
  viability: 0.0411
[2]; 3 µM
  viability: 0.0349
[2]; 15 µM
  viability: 0.0384
[3]; 0.024 µM
  viability: 0.804
[3]; 0.12 µM
  viability: 0.512
[3]; 0.6 µM
  viability: 0.285
[3]; 3 µM
  viability: 0.139
[3]; 15 µM
  viability: 0.0818
[4]; 0.024 µM
  viability: 0.912
[4]; 0.12 µM
  viability: 0.736
[4]; 0.6 µM
  viability: 0.245
[4]; 3 µM
  viability: 0.0814
[4]; 15 µM
  viability: 0.0383
[5]; 0.024 µM
  viability: 1
[5]; 0.12 µM
  viability: 0.413
[5]; 0.6 µM
  viability: 0.288
[5]; 3 µM
  viability: 0.277
[5]; 15 µM
  viability: 0.303
[6]; 0.024 µM
  viability: 0.863
[6]; 0.12 µM
  viability: 0.762
[6]; 0.6 µM
  viability: 0.587
[6]; 3 µM
  viability: 0.521
[6]; 15 µM
  viability: 0.407
[7]; 0.024 µM
  viability: 0.759
[7]; 0.12 µM
  viability: 0.381
[7]; 0.6 µM
  viability: 0.351
[7]; 3 µM
  viability: 0.461
[7]; 15 µM
  viability: 0.489
[8]; 0.024 µM
  viability: 0.345
[8]; 0.12 µM
  viability: 0.0686
[8]; 0.6 µM
  viability: 0.0335
[8]; 3 µM
  viability: 0.0271
[8]; 15 µM
  viability: 0.0269
[9]; 0.024 µM
  viability: 0.851
[9]; 0.12 µM
  viability: 0.737
[9]; 0.6 µM
  viability: 0.506
[9]; 3 µM
  viability: 0.461
[9]; 15 µM
  viability: 0.327
[10]; 0.024 µM
  viability: 0.951
[10]; 0.12 µM
  viability: 0.792
[10]; 0.6 µM
  viability: 0.677
[10]; 3 µM
  viability: 0.507
[10]; 15 µM
  viability: 0.446
[11]; 0.024 µM
  viability: 0.646
[11]; 0.12 µM
  viability: 0.298
[11]; 0.6 µM
  viability: 0.219
[11]; 3 µM
  viability: 0.217
[11]; 15 µM
  viability: 0.211
[12]; 0.024 µM
  viability: 1.09
[12]; 0.12 µM
  viability: 1.06
[12]; 0.6 µM
  viability: 0.723
[12]; 3 µM
  viability: 0.402
[12]; 15 µM
  viability: 0.126
[13]; 0.024 µM
  viability: 0.834
[13]; 0.12 µM
  viability: 0.53
[13]; 0.6 µM
  viability: 0.377
[13]; 3 µM
  viability: 0.362
[13]; 15 µM
  viability: 0.319
[14]; 0.024 µM
  viability: 1
[14]; 0.12 µM
  viability: 0.888
[14]; 0.6 µM
  viability: 0.457
[14]; 3 µM
  viability: 0.284
[14]; 15 µM
  viability: 0.157

## CC1(COc2ccc3c(c2)ncn3-c2ccc3cccc(N4CCC(N)CC4)c3n2)COC1 [Crenolanib]
[1]; 0.016 µM
  viability: 0.695
[1]; 0.08 µM
  viability: 0.674
[1]; 0.4 µM
  viability: 0.584
[1]; 2 µM
  viability: 0.439
[1]; 10 µM
  viability: 0.033
[2]; 0.016 µM
  viability: 1.09
[2]; 0.08 µM
  viability: 1.13
[2]; 0.4 µM
  viability: 1.02
[2]; 2 µM
  viability: 0.305
[2]; 10 µM
  viability: 0.0182
[3]; 0.016 µM
  viability: 1.02
[3]; 0.08 µM
  viability: 1.17
[3]; 0.4 µM
  viability: 0.996
[3]; 2 µM
  viability: 0.889
[3]; 10 µM
  viability: 0.0548
[4]; 0.016 µM
  viability: 1.08
[4]; 0.08 µM
  viability: 1.13
[4]; 0.4 µM
  viability: 0.958
[4]; 2 µM
  viability: 0.83
[4]; 10 µM
  viability: 0.0336
[5]; 0.016 µM
  viability: 0.613
[5]; 0.08 µM
  viability: 1.35
[5]; 0.4 µM
  viability: 0.631
[5]; 2 µM
  viability: 0.73
[5]; 10 µM
  viability: 0.157
[6]; 0.016 µM
  viability: 0.891
[6]; 0.08 µM
  viability: 0.982
[6]; 0.4 µM
  viability: 0.793
[6]; 2 µM
  viability: 0.742
[6]; 10 µM
  viability: 0.0532
[7]; 0.016 µM
  viability: 0.559
[7]; 0.08 µM
  viability: 0.649
[7]; 0.4 µM
  viability: 0.889
[7]; 2 µM
  viability: 0.977
[7]; 10 µM
  viability: 0.333
[8]; 0.016 µM
  viability: 0.85
[8]; 0.08 µM
  viability: 0.851
[8]; 0.4 µM
  viability: 0.797
[8]; 2 µM
  viability: 0.554
[8]; 10 µM
  viability: 0.418
[9]; 0.016 µM
  viability: 0.824
[9]; 0.08 µM
  viability: 0.612
[9]; 0.4 µM
  viability: 0.835
[9]; 2 µM
  viability: 0.835
[9]; 10 µM
  viability: 0.0567
[10]; 0.016 µM
  viability: 1.12
[10]; 0.08 µM
  viability: 1.08
[10]; 0.4 µM
  viability: 1.11
[10]; 2 µM
  viability: 1.12
[10]; 10 µM
  viability: 0.381
[11]; 0.016 µM
  viability: 0.672
[11]; 0.08 µM
  viability: 0.712
[11]; 0.4 µM
  viability: 0.778
[11]; 2 µM
  viability: 1.38
[11]; 10 µM
  viability: 0.103
[12]; 0.016 µM
  viability: 1.12
[12]; 0.08 µM
  viability: 1.1
[12]; 0.4 µM
  viability: 1.05
[12]; 2 µM
  viability: 1.02
[12]; 10 µM
  viability: 0.0351
[13]; 0.016 µM
  viability: 1
[13]; 0.08 µM
  viability: 1.12
[13]; 0.4 µM
  viability: 1.07
[13]; 2 µM
  viability: 0.624
[13]; 10 µM
  viability: 0.0262
[14]; 0.016 µM
  viability: 0.963
[14]; 0.08 µM
  viability: 1.15
[14]; 0.4 µM
  viability: 1.17
[14]; 2 µM
  viability: 1.06
[14]; 10 µM
  viability: 0.0329
